Test results taken from the supplement of paper PMC10307832.

Legend:
Experiment in all cases: relative viability (nuclei count vs DMSO), 5 days (fraction); higher = more cells survive
[1] = compound: CC(C)CCN1c2nc(Nc3cc(F)c(O)c(F)c3)ncc2N(C)C(=O)C1C [BI-D1870] + Nc1ncn([C@H]2C[C@H](O)[C@@H](CO)O2)c(=O)n1 [Decitabine] (partner 2 µM)
Summary of the method: (§1)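 The day after seeding in 1536-well plates, lung cancer cell lines were treated by pin tool with a single drug, or with a fixed anchor-drug dose together with five library-drug doses (not always all listed) in √10 steps. After 5 days, a combined fix-and-stain solution (final 0.05% Triton X-100, 1% formaldehyde, 1 ug/ml Hoechst) was added. Nuclei counted on 4× images gave relative viability as treated counts over vehicle counts, reported as the median of duplicate plates.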

[2] = compound: O=c1ncccn1[C@@H]1O[C@H](CO)[C@@H](O)[C@H]1O [Zebularine] + C[C@]1(O)C[C@@H](c2nc(-c3ccc4ccc(-c5ccccc5)nc4c3)c3c(N)nccn32)C1 [Linsitinib] (partner 1 µM)
Summary of the method: as §1

[3] = compound: CC(C)CCN1c2nc(Nc3cc(F)c(O)c(F)c3)ncc2N(C)C(=O)C1C [BI-D1870] + N=C(N)NC(=N)NCCc1ccccc1 [Phenformin] (partner 250 µM)
Summary of the method: as §1

[4] = compound: CC(C)CCN1c2nc(Nc3cc(F)c(O)c(F)c3)ncc2N(C)C(=O)C1C [BI-D1870] + CCNC(=O)c1noc(-c2cc(C(C)C)c(O)cc2O)c1-c1ccc(CN2CCOCC2)cc1 [Luminespib] (partner 0.01 µM)
Summary of the method: as §1

Row | Cell Line | relative viability ([1]; first compound 0.04 µM) | relative viability ([1]; first compound 0.1265 µM) | relative viability ([1]; first compound 0.4 µM) | relative viability ([1]; first compound 1.265 µM) | relative viability ([1]; first compound 4 µM) | relative viability ([2]; first compound 1 µM) | relative viability ([2]; first compound 3.162 µM) | relative viability ([2]; first compound 10 µM) | relative viability ([2]; first compound 31.62 µM) | relative viability ([2]; first compound 100 µM) | relative viability ([3]; first compound 0.04 µM) | relative viability ([3]; first compound 0.1265 µM) | relative viability ([3]; first compound 0.4 µM) | relative viability ([3]; first compound 1.265 µM) | relative viability ([3]; first compound 4 µM) | relative viability ([4]; first compound 0.04 µM) | relative viability ([4]; first compound 0.1265 µM) | relative viability ([4]; first compound 1.265 µM) | relative viability ([4]; first compound 4 µM) | relative viability ([4]; first compound 0.4 µM)
1 | ABC-1 | 0.885 | 1.05 | 1.15 | 0.942 | 1.03 | 0.678 | 0.713 | 0.572 | 0.544 | 0.481 | 0.215 | 0.211 | 0.264 | 0.218 | 0.212 | 0.581 | 0.776 | 0.512 | 0.371 | 
2 | NCI-H650 | 0.336 | 0.339 | 0.331 | 0.314 | 0.286 | 0.931 | 0.755 | 0.467 | 0.43 | 0.374 | 0.444 | 0.446 | 0.432 | 0.38 | 0.322 | 0.867 | 0.641 | 0.918 | 0.481 | 0.732
3 | NCI-H2085 | 0.541 | 0.556 | 0.643 | 0.519 | 0.557 | 1.18 | 0.878 | 0.76 | 0.887 | 0.428 | 0.806 | 0.658 | 0.676 | 0.69 | 0.52 | 0.483 | 0.452 | 0.407 | 0.364 | 0.503
4 | NCI-H1793 | 0.513 | 0.439 | 0.528 | 0.681 | 0.632 | 0.882 | 0.978 | 0.365 | 0.464 | 0.197 | 0.387 | 0.311 | 0.389 | 0.423 | 0.27 | 0.176 | 0.16 | 0.146 | 0.167 | 0.194
5 | LC-2-ad | 0.834 | 0.72 | 0.842 | 0.893 | 0.791 | 0.924 | 0.844 | 0.591 | 0.496 | 0.157 | 0.586 | 0.657 | 0.502 | 0.636 | 0.54 | 1.2 | 0.953 | 0.911 | 0.769 | 0.943
6 | COR-L 105 | 0.668 | 0.516 | 0.668 | 0.733 | 0.656 | 0.986 | 0.956 | 0.928 | 1.22 | 0.939 | 0.562 | 0.396 | 0.422 | 0.489 | 0.5 | 0.824 | 0.828 | 0.854 | 0.666 | 0.631
7 | NCI-H1355 | 0.363 | 0.31 | 0.356 | 0.412 | 0.394 | 1 | 0.769 | 0.752 | 0.513 | 0.283 | 0.494 | 0.418 | 0.44 | 0.46 | 0.38 | 0.802 | 0.675 | 0.737 | 0.573 | 0.649
8 | H3255 | 0.633 | 0.643 | 0.571 | 0.749 | 0.648 | 0.979 | 1.05 |  | 0.956 | 1 | 0.408 | 0.323 | 0.334 | 0.356 | 0.367 | 0.929 | 0.887 | 1.09 | 0.961 | 0.884
9 | NCI-H1993 | 0.634 | 0.438 | 0.668 | 0.647 | 0.579 | 0.775 | 0.637 |  | 0.795 | 0.657 | 0.482 | 0.403 | 0.487 | 0.468 | 0.572 | 1 | 0.629 | 1 | 0.834 | 0.972
10 | NCI-H1734 | 0.482 | 0.448 | 0.531 | 0.559 | 0.525 | 0.917 | 0.87 | 0.526 | 0.532 | 0.333 | 0.402 | 0.379 | 0.412 | 0.43 | 0.376 | 0.19 | 0.175 | 0.187 | 0.222 | 0.188
11 | HOP-62 | 0.212 | 0.241 | 0.208 | 0.198 | 0.314 | 1.05 | 0.848 | 0.557 | 0.188 | 0.118 | 0.705 | 0.657 | 0.719 | 0.823 | 0.664 | 0.989 | 0.929 | 0.95 | 0.866 | 0.88
12 | LOU-NH91 | 0.876 | 0.8 | 0.792 | 0.821 | 0.629 | 0.893 | 0.963 | 0.868 | 0.876 | 0.629 | 0.744 | 0.63 | 0.703 | 0.817 | 0.558 | 0.366 | 0.33 | 0.351 | 0.264 | 0.315
13 | PC-14 | 0.203 | 0.148 | 0.278 | 0.198 | 0.223 | 1.07 | 0.996 | 0.281 | 0.143 | 0.179 | 0.669 | 0.521 | 0.587 | 0.627 | 0.447 | 0.237 | 0.279 | 0.233 | 0.119 | 0.126
14 | NCI-H1437 | 0.59 | 0.53 | 0.756 | 0.629 | 0.56 | 1.18 | 1.2 |  | 0.989 | 0.342 | 0.279 | 0.255 | 0.309 | 0.332 | 0.27 | 1.17 | 1.06 | 1.11 | 0.855 | 1.11
15 | NCI-H460 | 0.548 | 0.459 | 0.473 | 0.593 | 0.443 | 1.21 | 1.06 | 0.272 | 0.388 | 0.0365 | 0.541 | 0.48 | 0.503 | 0.447 | 0.0984 | 0.0324 | 0.0316 | 0.0295 | 0.0315 | 0.0261
16 | NCI-H1666 | 0.711 | 0.701 | 0.716 | 0.732 | 0.677 | 0.748 | 0.862 | 0.675 | 0.804 | 0.562 | 0.572 | 0.521 | 0.592 | 0.58 | 0.537 | 1.02 | 0.977 | 1.05 | 0.825 | 1.01
